# Reference: PubChem BioAssay AID489034 (Sanford-Burnham Center for Chemical Genomics, 2010)
# The source made the active and inactive calls.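 The calls were made as follows: active = mean IC50 at or below a set limit; inactive = the rest.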
# System: 697 B-cell NF-kB luciferase reporter, PMA/ionomycin, 16 h
# Test: inhibitors of antigen receptor-driven NF-kB, dose response, 697 B cells, PMA/ionomycin, luminescence (AID 489034)
row,SMILES,IC50
1,COc1ccc(CCNc2ncnc3sccc23)cc1OC,77400 nM (inactive)
2,COc1cc(SC)ccc1C(=O)Nc1nc2ccccc2[nH]1,< 160 nM
3,O=C(COC(=O)c1ccc[nH]c1=O)Nc1ccc(N2CCCCC2)cc1,436 nM
4,N#Cc1c(NC(=O)CSc2ncn[nH]2)sc2c1CCCCC2,283 nM
5,C=C1C(=O)O[C@@H]2C[C@@H](C)[C@@H]3C=CC(=O)[C@@]3(C)[C@@H](OC(C)=O)[C@H]12,> 80000 nM (inactive)
6,Cc1ccnc(NC(=O)CCCOc2cc(=O)n(C)c3ccccc23)c1,8540 nM
7,COc1ccc(CCNc2c(C)c(C)nc3ncnn23)cc1,> 80000 nM (inactive)
8,CCCCCCn1c2c(c(=N)c3c1CCC3)CCC2,> 80000 nM (inactive)
9,O=C(/C=C/c1ccccc1)Nc1cccc(C(=O)O)c1,620 nM
10,C[C@@H]1O[C@@H](O[C@@H]2C=C3CCC4C(CC[C@]5(C)[C@@H](c6ccc(=O)oc6)CC[C@]45O)[C@@]3(C)CC2)[C@H](O)[C@H](O)[C@H]1O (stereo partly specified),< 160 nM
11,Cc1cc(C(=O)COC(=O)c2ccccc2O)c(C)n1CC1CCCO1 (stereo unspecified),267 nM
12,C=C1C(=O)O[C@@H]2C[C@@H](C)[C@@H]3C=CC(=O)[C@@]3(C)[C@@H](OC(=O)CC(=O)O[C@H]3[C@@H]4C(=C)C(=O)O[C@@H]4C[C@@H](C)[C@@H]4C=CC(=O)[C@]43C)[C@H]12,377 nM
13,O=C(CCl)N=c1sccn1Cc1ccccc1Cl,222 nM
14,N#Cc1c(NC(=O)CSc2ncn[nH]2)sc2c1CCCC2,300 nM
15,Cc1ccc(OCCN2CCN(c3ncnc4sc(C)c(C)c34)CC2)cc1,> 80000 nM (inactive)
16,CCOC(=O)C1CCCN(S(=O)(=O)c2ccc(S(=O)(=O)N(CC)CC)cc2)C1 (stereo unspecified),> 80000 nM (inactive)
17,O=C(CSc1nnnn1C1CC2CCC1C2)Nc1ccnc2ccccc12 (stereo unspecified),> 80000 nM (inactive)
18,C[C@@H]1O[C@@H](O[C@@H]2C=C3CC[C@@H]4C(CC[C@]5(C)[C@@H](c6ccc(=O)oc6)CC[C@]45O)[C@@]3(C)CC2)[C@H](O)[C@H](O)[C@H]1O (stereo partly specified),< 160 nM
19,CC[n+]1c(C=C2C=C(C)OC(C)=C2)sc2ccccc21,> 80000 nM (inactive)
20,COc1ccc(C(=O)Nc2nc3ccccc3s2)c(OC)c1,275 nM
21,CC1CCCN(c2ccc([N+](=O)[O-])cc2C(=O)c2ccccc2)C1 (stereo unspecified),> 80000 nM (inactive)
22,COC(=O)Cc1ccc(NC(=O)c2ccc(C(C)(C)C)cc2)cc1,< 160 nM
23,O=C(NCCc1ccccc1F)c1ccc2c(c1)OCCO2,675 nM
24,COC1=CC(=O)[C@]2(C=C1OC)OC[C@@H]1Oc3c(ccc4c3C=CC(C)(C)O4)C(=O)[C@@H]12,47700 nM (inactive)
25,COc1ccc(CCNc2ncnc3sc(C)cc23)cc1OC,33400 nM (inactive)
26,C[C@@H]1C[C@@H]2O[C@H]2/C=C\C=C\C(=O)Cc2c(Cl)c(O)cc(O)c2C(=O)O1,275 nM

row,SMILES,IC50
1,Cc1nn(C(C)(C)C)c(C)c1/C=N/OC(=O)Nc1ccc(Cl)cc1,< 160 nM
2,Cc1ccc(Cn2ccsc2=NC(=O)CCl)cc1,489 nM
3,Cn1nccc1C(=O)NC1CCCc2c1cnn2-c1ccc(F)cc1F (stereo unspecified),> 80000 nM (inactive)
4,CN=c1scc(-c2ccccc2F)n1/N=C/c1ccc[nH]1,702 nM
5,COc1ccccc1C(=O)Nc1nc(-c2ccc(S(=O)(=O)N3CCOCC3)cc2)cs1,7170 nM
6,COc1ccc(OC)c(C2C3=C(COC3=O)Nc3cc4c(cc32)OCO4)c1 (stereo unspecified),> 80000 nM (inactive)
7,CCCCCCCCCCCCn1ccc(=N)cc1,9190 nM
8,Cc1ccc(-c2csc(NC(=O)C3CCN(S(=O)(=O)c4cccs4)CC3)n2)cc1,> 80000 nM (inactive)
9,N=c1c2c(-c3ccccc3)c(-c3ccccc3)n(Cc3ccccc3)c2ncn1CCCn1ccnc1,32200 nM (inactive)
10,O=C(Nc1cccc(C(=O)O)c1)Nc1ccc2c(c1)OCO2,1140 nM
11,CCN(CC)S(=O)(=O)c1ccc(Oc2ccc(S(=O)(=O)N(CC)CC)cc2)cc1,> 80000 nM (inactive)
12,C=CC(=O)Nc1ccc(Nc2nc(NC3CCC(N(C)C)CC3)nc3c2ncn3C(C)C)cc1 (stereo unspecified),593 nM
13,Cc1cc(CSc2ccccc2)ccc1NC(=O)c1ccc(CN2CCOCC2)cc1,> 80000 nM (inactive)
14,O=C(NCCNCCO)C1(C(F)(F)F)C/C(=C\CCO)CCCO1 (stereo unspecified),> 80000 nM (inactive)
15,N#CC(c1cccc(Cl)c1)c1ccc2c(C(F)(F)F)cc(C(F)(F)F)nc2n1 (stereo unspecified),> 80000 nM (inactive)
16,CCOc1ccc(S(=O)(=O)NCc2ccncc2)cc1,> 80000 nM (inactive)
17,COc1ccc(C[C@H]2NC[C@H](O)[C@H]2OC(C)=O)cc1,< 160 nM
18,COc1ccc(-c2cc3nc(C)n(N)c(=O)c3s2)cc1,673 nM
19,C=C1C(=O)O[C@@H]2C[C@@H](C)[C@@H]3C=CC(=O)[C@@]3(C)[C@@H](O)[C@H]12,> 80000 nM (inactive)
20,C#CC(=O)N(c1ccc(OC)cc1OC)C(C(=O)NC1CCCC1)c1cccs1 (stereo unspecified),252 nM
21,COc1ccc(NS(=O)(=O)c2cccc(NC(=O)c3ccc(Cl)nc3)c2)cc1,70300 nM (inactive)
22,COc1cc([N+](=O)[O-])cc(/C=N/NC(=O)c2ccc(NC(=O)c3ccc(C)cc3)cc2)c1O,1020 nM
23,CC(C)(C)c1ccc(C(=O)Nc2ccc(CC(=O)O)cc2)o1,< 160 nM
24,CCCCCCCCCn1ccc(=N)cc1,46200 nM (inactive)
25,COc1cc(/C=N/NC(=S)Nc2cccc(C(=O)O)c2)ccc1O,15300 nM
26,CCC(C)(C)c1ccc(OCCCC[n+]2ccc(C)cc2)c(C(C)(C)CC)c1,22300 nM (inactive)

row,SMILES,IC50
1,COc1ccc(CNc2ncc(-c3ccc(F)cc3)n2C)c2ccccc12,1570 nM
2,Cn1nc(C(C)(C)C)cc1C(=O)NCc1ccc(N2CCCC2=O)cc1,> 80000 nM (inactive)
3,CCn1c(C)cc(C(=O)COC(=O)c2ccccc2[N+](=O)[O-])c1C,< 160 nM
4,Cc1sc2ncnc(N3CCN(CCOc4ccc(Cl)cc4)CC3)c2c1C,> 80000 nM (inactive)
5,c1ccc2sc(Sc3ncnc4sccc34)nc2c1,197 nM
6,COc1cccc2c1C(=O)c1c(O)c3c(c(O)c1C2=O)C[C@@](O)(C(=O)CO)C[C@@H]3O[C@H]1C[C@H](N)[C@@H](O)[C@H](C)O1,3530 nM
7,COc1cc(NC(=O)COc2cc(O)c3c(c2)OC(C)(C)CC3=O)cc(OC)c1OC,36900 nM (inactive)
8,COc1cc(CSc2nnnn2-c2ccc(C)cc2)cc(OC)c1OC,> 80000 nM (inactive)
9,CC(=O)O[C@H]1[C@H]2O[C@]23[C@@H]2CC[C@]4(O)C[C@@H](O)CC[C@]4(C)C2CC[C@]3(C)[C@H]1c1ccc(=O)oc1 (stereo partly specified),223 nM
10,CC(=O)OC(C)(C)/C=C/C(=O)[C@](C)(O)C1[C@H](O)C[C@@]2(C)C3CC=C4C(C[C@H](O)C(=O)C4(C)C)[C@]3(C)C(=O)C[C@]12C (stereo partly specified),7020 nM
11,CCN1/C(=C\c2ccc3ccccc3[n+]2CC)Sc2cc(C)ccc21,> 80000 nM (inactive)
12,CCn1c(C)nc2cc(-c3nc4n(n3)Cc3ccccc3-4)ccc21,198 nM
13,CCCCC[n+]1cccc2c3ccccc3ccc21,> 80000 nM (inactive)
14,CCCCCCCCn1ccc(=N)cc1,> 80000 nM (inactive)
15,C[C@H](NC(=O)c1nc[nH]c1C(=O)N[C@@H](C)C(=O)OCc1ccccc1)C(=O)OCc1ccccc1,> 80000 nM (inactive)
16,Cc1cc(Cl)c(S(=O)(=O)N2CCN(c3ccc(F)cc3)CC2)cc1OCC(=O)NC1CCCCC1,> 80000 nM (inactive)
17,CC(Nc1ncnc2sccc12)c1ccccc1 (stereo unspecified),64400 nM (inactive)
18,CCc1cc2c(Sc3nc4ccccc4s3)ncnc2s1,< 160 nM
19,O=C(CCl)N=c1sccn1Cc1ccc(Cl)cc1Cl,< 160 nM
20,CC(C)c1ccc(-c2nnn(CCC(=O)O)n2)cc1,202 nM
21,COc1ccc(-c2nc(-c3ccccn3)no2)cc1,872 nM
22,CCOc1ccc(NC(=O)Nc2cccc(C(=O)O)c2)cc1,504 nM
23,O=C1/C(=C/c2ccccc2)C[C@@]2(O)[C@H]3Cc4ccc(O)c5c4[C@@]2(CCN3CC2CC2)C1O5 (stereo partly specified),6200 nM
24,Nc1nc(Cl)nc2c1ncn2[C@H]1C[C@H](O)[C@@H](CO)O1,5060 nM
25,O=C(Nc1ccc([N+](=O)[O-])cc1)C(=O)Nc1cccc(C(=O)O)c1,946 nM
26,COc1cc(NC(C)CCCN)c2ncccc2c1 (stereo unspecified),> 80000 nM (inactive)

row,SMILES,IC50
1,Cn1nccc1C(=O)NC1CCCc2c1cnn2-c1ccccc1F (stereo unspecified),56300 nM (inactive)
2,Cc1cc2sc3ccc(C#CC4(O)CCCCC4)cc3c(=O)c2cc1C,< 160 nM
3,Cc1cc(Cl)c(S(=O)(=O)N2CCCCCC2)cc1OCC(=O)NC1CCCCC1,> 80000 nM (inactive)
4,CC(=O)OC[C@]12CCC(C)=C[C@H]1O[C@@H]1[C@H](O)[C@@H](OC(C)=O)[C@@]2(C)[C@]12CO2,< 160 nM
5,COCCn1c(C)cc(C2=NNC(=NC3CC3)SC2)c1C,< 160 nM
6,CN(C)c1ccc(-c2n(C)c3ccccc3[n+]2C)cc1,> 80000 nM (inactive)
7,COc1ccc(-c2c[n+]3c(n2-c2ccc(C)cc2)CCCCC3)cc1,> 80000 nM (inactive)
8,CCCCCn1c(=O)[nH]c2cc(C(=O)N3CCN(Cc4ccc5c(c4)OCO5)CC3)ccc2c1=O,> 80000 nM (inactive)
9,CCCCCCn1ccc(=N)cc1,> 80000 nM (inactive)
10,CN(C)c1cc[n+](CC(=O)c2ccc(-c3ccccc3)cc2)cc1,47400 nM (inactive)
11,OCCCNc1nccc(-c2cc(Nc3cccc(Cl)c3)ncn2)n1,4100 nM
12,O=C(c1ccc(Br)cc1)c1cc([N+](=O)[O-])ccc1N1CCCCC1,> 80000 nM (inactive)
13,COc1ccccc1C(=O)Nc1nc2ccccc2[nH]1,454 nM
14,CC(C)(C)c1ccc(C(=O)N2CCCCCC2=O)cc1,579 nM
15,CC1CCN(c2nc3ccc(C(=O)O)cc3s2)CC1,1330 nM
16,O=C(CN1C(=O)c2ccccc2S1(=O)=O)c1ccc2c(c1)OCCCO2,< 160 nM
17,CCOc1ccc(/C=C2\SC(=S)N(CCC(=O)O)C2=O)cc1,211 nM
18,COc1cccc(NC(=O)Nc2cccc(C(=O)O)c2)c1,1620 nM
19,Cc1cc(NNC(=O)Nc2cccc(Cl)c2)nc2c1c(C)nn2C,> 80000 nM (inactive)
20,C[n+]1c(-c2ccccc2)c2cc(N)ccc2c2ccc(N)cc21,> 80000 nM (inactive)
21,COc1ccc(/C=C2\SC(=O)N(CCCC(=O)Nc3cc(Cl)ccc3C(=O)O)C2=O)cc1,331 nM
22,O=C(Nc1ccc(Cl)cc1)Nc1cccc(C(=O)O)c1,2220 nM
23,NC1=NC[C@H](Cc2ccc(O)cc2)N1CCCCC1CCCCC1,> 80000 nM (inactive)
